# Like-named read-outs stand apart in the source and are kept apart here.
# Legend:
# Assay type in all cases: in vivo
# [1] = tested on: Abutilon theophrasti (ABUTH), velvetleaf; test: Postemergence herbicide evaluation, growth of Abutilon theophrasti (ABUTH); settings: Abutilon theophrasti, post-emergence, read-out: AVE. ABUTH, percent reduction in plant size relative to the untreated control; for pest or weed control at 280 g/ha: 280 g ae/ha; for pest or weed control at 560 g/ha: 560 g ae/ha
# [2] = tested on: Chenopodium album (CHEAL), common lambsquarters; test: Postemergence herbicide evaluation, growth of Chenopodium album (CHEAL); settings: Chenopodium album, post-emergence, read-out: Ave. CHEAL, percent reduction in plant size relative to the untreated control; for pest or weed control at 280 g/ha: 280 g ae/ha; for pest or weed control at 560 g/ha: 560 g ae/ha
# [3] = tested on: weeds ABUTH, AMATA, AMBEL, CHEAL, ERICA; test: Postemergence herbicide evaluation, overall average % weed control (ABUTH, AMATA, AMBEL, CHEAL, ERICA); settings: post-emergence, read-out: Overall Ave % Weed Control; for pest or weed control at 280 g/ha: 280 g ae/ha; for pest or weed control at 560 g/ha: 560 g ae/ha
# [4] = tested on: Ambrosia artemisiifolia (AMBEL), common ragweed; test: Postemergence herbicide evaluation, growth of Ambrosia artemisiifolia (AMBEL); settings: Ambrosia artemisiifolia, post-emergence, read-out: AVE. AMBEL, percent reduction in plant size relative to the untreated control; for pest or weed control at 280 g/ha: 280 g ae/ha; for pest or weed control at 560 g/ha: 560 g ae/ha
# [5] = tested on: glyphosate resistant Conyza canadensis (L.) (ERICA), horseweed; test: Postemergence herbicide evaluation, growth of Conyza canadensis (ERICA); settings: Erigeron canadensis, post-emergence, read-out: Ave. ERICA, percent reduction in plant size relative to the untreated control; for pest or weed control at 280 g/ha: 280 g ae/ha; for pest or weed control at 560 g/ha: 560 g ae/ha
# [6] = tested on: Amaranthus rudis (AMATA), tall water hemp; test: Postemergence herbicide evaluation, growth of Amaranthus rudis (AMATA); settings: Amaranthus tuberculatus, post-emergence, read-out: Ave. AMATA, percent reduction in plant size relative to the untreated control; for pest or weed control at 280 g/ha: 280 g ae/ha; for pest or weed control at 560 g/ha: 560 g ae/ha
SMILES,"pest or weed control at 280 g/ha ([1]; 168 h, 7 DAA) [%]","pest or weed control at 560 g/ha ([1]; 168 h, 7 DAA) [%]","pest or weed control at 280 g/ha ([1]; 336 h, 14 DAA) [%]","pest or weed control at 560 g/ha ([1]; 336 h, 14 DAA) [%]","pest or weed control at 280 g/ha ([1]; 504 h, 21 DAA) [%]","pest or weed control at 560 g/ha ([1]; 504 h, 21 DAA) [%]","pest or weed control at 280 g/ha ([2]; 168 h, 7 DAA) [%]","pest or weed control at 560 g/ha ([2]; 168 h, 7 DAA) [%]","pest or weed control at 280 g/ha ([2]; 336 h, 14 DAA) [%]","pest or weed control at 560 g/ha ([2]; 336 h, 14 DAA) [%]","pest or weed control at 280 g/ha ([2]; 504 h, 21 DAA) [%]","pest or weed control at 560 g/ha ([2]; 504 h, 21 DAA) [%]","pest or weed control at 280 g/ha ([3]; 168 h, 7 DAA) [%]","pest or weed control at 560 g/ha ([3]; 168 h, 7 DAA) [%]","pest or weed control at 280 g/ha ([3]; 336 h, 14 DAA) [%]","pest or weed control at 560 g/ha ([3]; 336 h, 14 DAA) [%]","pest or weed control at 280 g/ha ([3]; 504 h, 21 DAA) [%]","pest or weed control at 560 g/ha ([3]; 504 h, 21 DAA) [%]","pest or weed control at 280 g/ha ([4]; 168 h, 7 DAA) [%]","pest or weed control at 560 g/ha ([4]; 168 h, 7 DAA) [%]",also measured
O=C(COc1ccc(Cl)cc1Cl)Nc1c(Cl)c(F)nc(F)c1Cl [Compound D25],0,3.5,0,0,0,2.5,35,45,0,7.5,12.5,15,16.5,21.2,10,10.5,7.5,8,35,40,"pest or weed control at 280 g/ha ([4]; 336 h, 14 DAA): 15%; pest or weed control at 560 g/ha ([4]; 336 h, 14 DAA): 7.5%; pest or weed control at 280 g/ha ([4]; 504 h, 21 DAA): 10%; pest or weed control at 560 g/ha ([4]; 504 h, 21 DAA): 7.5%; pest or weed control at 280 g/ha ([5]; 168 h, 7 DAA): 7.5%; pest or weed control at 560 g/ha ([5]; 168 h, 7 DAA): 10%; pest or weed control at 280 g/ha ([5]; 336 h, 14 DAA): 20%; pest or weed control at 560 g/ha ([5]; 336 h, 14 DAA): 12.5%; pest or weed control at 280 g/ha ([5]; 504 h, 21 DAA): 10%; pest or weed control at 560 g/ha ([5]; 504 h, 21 DAA): 12.5%; pest or weed control at 280 g/ha ([6]; 168 h, 7 DAA): 5%; pest or weed control at 560 g/ha ([6]; 168 h, 7 DAA): 7.5%; pest or weed control at 280 g/ha ([6]; 336 h, 14 DAA): 15%; pest or weed control at 560 g/ha ([6]; 336 h, 14 DAA): 25%; pest or weed control at 280 g/ha ([6]; 504 h, 21 DAA): 5%; pest or weed control at 560 g/ha ([6]; 504 h, 21 DAA): 2.5%"
O=C(COc1ccc(Cl)cc1Cl)Oc1cccnn1 [Compound E2],85,85,93,93,98,98,65,75,63,88,63,94,72,74,83,89,86,93,63,63,"pest or weed control at 280 g/ha ([4]; 336 h, 14 DAA): 90%; pest or weed control at 560 g/ha ([4]; 336 h, 14 DAA): 95%; pest or weed control at 280 g/ha ([4]; 504 h, 21 DAA): 94%; pest or weed control at 560 g/ha ([4]; 504 h, 21 DAA): 99%; pest or weed control at 280 g/ha ([5]; 168 h, 7 DAA): 70%; pest or weed control at 560 g/ha ([5]; 168 h, 7 DAA): 73%; pest or weed control at 280 g/ha ([5]; 336 h, 14 DAA): 88%; pest or weed control at 560 g/ha ([5]; 336 h, 14 DAA): 85%; pest or weed control at 280 g/ha ([5]; 504 h, 21 DAA): 94%; pest or weed control at 560 g/ha ([5]; 504 h, 21 DAA): 90%; pest or weed control at 280 g/ha ([6]; 168 h, 7 DAA): 78%; pest or weed control at 560 g/ha ([6]; 168 h, 7 DAA): 73%; pest or weed control at 280 g/ha ([6]; 336 h, 14 DAA): 80%; pest or weed control at 560 g/ha ([6]; 336 h, 14 DAA): 83%; pest or weed control at 280 g/ha ([6]; 504 h, 21 DAA): 83%; pest or weed control at 560 g/ha ([6]; 504 h, 21 DAA): 84%"

# Reference: patent US20260042731A1, “(2,4-DICHLOROPHENOXY)ACETIC ACID ANALOGS” (CORTEVA AGRISCIENCE LLC, priority 2022, published 2026)
